These results are taken from paper PMC9241644, “Evaluation of Novel Quorum Sensing Inhibitors Targeting Auto-Inducer 2 (AI-2) for the Control of Avian Pathogenic Escherichia coli Infections in Chickens” (Microbiology Spectrum, 2022).

“And” between values parts separate entries of the source, which are not always exact repeats. Equal entries are not always repeated.

One data set has as its system Rif^R APEC O78. Description: Comparative efficacy of QSI-5 and SDM in field simulated conditions (built-up floor litter). It is filed as in vivo, Escherichia coli. From the text: Chickens were monitored for clinical signs for 8 DPI. Any chickens moribund during this period were humanely euthanized and necropsied to determine bacterial load in the internal organs (liver, heart, lung, and kidney). Internal organs were aseptically collected, weighed and suspended in 1× PBS, the amount of PBS added was adjusted based on the organ size to make a suspension, the organ size and amount of PBS added were included in the final calculation of the CFU. The samples were homogenized, serially diluted 10-fold, plated on MacConkey agar (Remel, CA, USA) containing 50 μg/mL rifampicin, and incubated at 37°C for 24 h to determine the CFU/g. Pathological lesions severity in internal organs (pericarditis, perihepatitis, airsacculitis, and lung congestion) was scored as described previously ([21], [59]). At 8 DPI, the remaining chickens were humanely euthanized and necropsied, lesions were scored, and the APEC load was quantified in internal organs as described above.
To compare the efficacy of QSI-5 with an antibiotic SDM currently used in the field, chickens (n = 70) were raised on built-up floor litter in a field-simulated conditions. One-day-old broiler chickens (Case Farms Ohio Hatchery, OH, USA) were used for conducting the experiment. The optimized dose of QSI-5 (1 mg/L) and the therapeutic dose of SDM (495.323 mg/L) (0.05%) were given in drinking water daily for 7 days (starting from day 5 to day 11 of age). The volume of drinking water needed daily was determined as described above. On day 6, the chickens were infected s/c with Rif^r APEC O78 (5 × 10^6 CFU/chicken, s/c). PC (0.05% DMSO treated and infected) and NC (non-infected and non-treated) control groups were included. The mortality was recorded daily until the end of the experiment (42 days of age: slaughter age). At 8 DPI, half of the chickens from each group were necropsied, lesions were scored, and the APEC load was quantified in the internal organs as described above. The other half of the chickens were raised until day 42 to determine the impact of treatment on the body weight gain and feed intake. To calculate the FCR, body weight was measured once every week and feed intake was recorded every day. On day 42, the remaining chickens were euthanized, body weight was measured and 10 chickens from each group were randomly selected and necropsied, lesions and APEC load were assessed in the internal organs.

Data set [1] can be described thus: PK profile of QSI-5 and SDM in chicken plasma (LC-MS). It is filed as in vivo, chickens. The procedure: The amount of QSI-5 and SDM in chicken plasma was measured using LC-MS. The optimized dose of QSI-5 (1 mg/L) and the therapeutic dose of SDM (495.323 mg/L) (0.05%) were administered orally as a single dose. Blood was collected individually from five chickens per group at different time points (0 h, 0.5 h, 1 h, 2 h, 4 h, 8 h, 12 h, 24 h) after administration of QSI-5 and SDM in vacutainer EDTA (10.8 mg) tubes (Becton, Dickinson, NJ, USA), blood was placed on ice for 1 h to clot, plasma was separated by centrifuging at 2,000 × g for 10 min at 4°C and stored at −80°C °C for LC-MS analysis. Plasma protein was precipitated by adding cold methanol and 10 μL (1 μg/mL) of an internal standard (IS) heavy-labeled phenylalanine (dissolved in 0.1% formic acid) was added to each 100 μL aliquot. The mixture was then incubated at −20°C for 30 min and centrifuged at 1300 × g for 25 min at 2°C. Sixty μL of the supernatant was pipetted into LC vials. For standard calibration, solutions of 0.0, 0.001, 0.005, 0.01, 0.05, 0.1, 0.5, 1, and 5 μg/mL of QSI-5 and SDM were prepared and 20 μL of each standard solution was added to 80 μL of cold methanol and IS as mentioned above. All samples were run by injecting 5 μL on an Agilent Poroshell 120 SB-C18 (2 × 100 mm in diameter, 2.7 μm particle sizes). The LC system (Thermo Fisher Scientific UltiMate 3000 HPLC) was used with solvent A (10 mM ammonium formate and 0.1% formic acid) and solvent B (methanol with a flow rate of 200 μL/min). The gradient was set to 2% B at 2 min, increased from 2% to 20% at 5 min, 40% at 7.5 min, and reached 90% after 9 min. The gradient was sustained at 90% B for 11 min and then decreased to 2% at 12 min and was held for equilibration until the run ended after 15 min. The mass spectrometer (Thermo Fisher Scientific Quantiva Triple Quadrupole) was set to multiple reactions monitoring mode (SRM) with a heated electrospray ionization source (ESI) in positive mode at 3.5 kV. Drug targets were monitored for QSI-5 at transitions 309.26→105.1 m/z and 309.26→203.15 m/z at 28 and 20 V collision energy, respectively, and for SDM at transitions 311.11→156.11 m/z and 311.11→245.07 m/z at 21 and 18 V CE. The analysis of plasma samples was performed in Campus Chemical Instrumentation Center, Mass Spectrometry and Proteomics Facility (CCIC, MS&P), The Ohio State University (https://live-ccic.pantheonsite.io/MSP).

The conditions of data set [2]: based on the observations during dosing in drinking water.
For the next data set, the system named is APEC. On the set-up: method as in PMID 30270715. The settings on record: in vitro; cited from earlier work.
Setting [3] is: single oral dose (QSI-5 1 mg/L, SDM 495.323 mg/L).

With `Cc1ccc(CN2CCN(CCCc3ccccc3)CC2)cc1` [QSI-5], the “Average lesion severity, Lung” value in the data set on Rif^R APEC O78 (Table S3, PC 1.85) is recorded as 0.21. For the same molecule, the “Average lesion severity, Liver” value with Rif^R APEC O78 (Table S3, PC 2.52) is 1.68. Further, the “Average lesion severity, Airsac” value in the data set with Rif^R APEC O78 (Table S3, PC 3.36) is listed as 1.25. The “Average lesion severity, Heart” value with Rif^R APEC O78 (Table S3, PC 3.58) is 1.93. The “Average APEC load, Liver” value in the data set with Rif^R APEC O78 (Table S3, PC 7.24) is reported as 4.95 Log CFU/ g of tissue. Besides, the “Average APEC load, Lung” value in the data set on Rif^R APEC O78 (Table S3, PC 7.68) was 4.93 Log CFU/ g of tissue. The “Average APEC load, Kidney” value in the data set on Rif^R APEC O78 (Table S3, PC 7.73) was 5.06 Log CFU/ g of tissue. Also, the “Average APEC load, Heart” value in the data set on Rif^R APEC O78 (Table S3, PC 7.92) is listed as 5.46 Log CFU/ g of tissue. Besides, the “Mortality rate % (Nr.)” value in the data set on Rif^R APEC O78 (Table S3, until 42 days of age, QSI-5 (8/63), SDM (19/65), PC 45.6 (31/68)) is 12.7%. For the same molecule, the “reduction in mortality compared with the PC group” value with Rif^R APEC O78 (built-up floor litter, QSI-5 1 mg/L, SDM 495.3 mg/L (0.05%) in drinking water 7 days, s/c APEC O78 5 × 10^6 CFU/chicken) is 88.4% and 72.2%. Moreover, in data set [1] (single oral dose), the half-life entry was “short half-life” and the “time by which excreted” value is reported as at most 24 HPT. Besides, in data set [1] (setting [3]), the “maximum concentration in plasma (Cmax)” value was determined as 0.76 ng/mL and the “time of peak concentration in plasma” value worked out at 2 HPT. Besides, the “time at which absorbed / detected in blood” value in data set [1] (single oral dose (QSI-5 1 mg/L, SDM 495.323 mg/L), h posttreatment) came out at 0.5 HPT. In addition, in data set [2], the aqueous solubility result was “good aqueous solubility”. Besides, the “effect on the growth of APEC” value in the data set with APEC was “does not affect the growth of APEC”.
